Assay results: PMC10532587, “An Investigation of Structure–Activity Relationships and Cell Death Mechanisms of the Marine Alkaloids Discorhabdins in Merkel Cell Carcinoma Cells” (Marine Drugs, 2023)

Columns and labels:
HaCaT = assay: Cell survival by CellTiterGlo, control cells; type: cell-based, human
MCC13 = assay: Cell survival by CellTiterGlo, VN-MCC line MCC13; type: cell-based
MCC26 = assay: Cell survival by CellTiterGlo, VN-MCC line MCC26; type: cell-based
UISO = assay: Cell survival by CellTiterGlo, VN-MCC line UISO; type: cell-based
MKL-1 = assay: Cell survival by CellTiterGlo, VP-MCC line MKL-1; type: cell-based; details: VP-MCC
MKL-2 = assay: Cell survival by CellTiterGlo, VP-MCC line MKL-2; type: cell-based
Waga = assay: Cell survival by CellTiterGlo, VP-MCC line Waga; type: cell-based
[1] = tested on: control (HaCaT) and Merkel cell carcinoma cell lines; assay: Cell survival by CellTiterGlo, all seven cell lines; type: cell-based; details: MCC and control cell lines
Method: (§1) Three methods were employed for assessment of MCC and control cell survival/viability after discorhabdin treatment, two metabolic assays and a cell permeability assay. For all three methods, cells were plated in 384-well plates at 2500 cells/well and treated with various concentrations of discorhabdins for various time periods. CellTiterGlo^TM (Promega, Madison, WI, USA) measures cellular ATP content and was used to estimate potency of discorhabdins in cell viability assays as previously described. Continuous monitoring of metabolic activity was accomplished using a cellular reducing potential luminescence assay, the RealTime-Glo^TM MT Cell Viability Assay (Promega, Madison, WI, USA) according to manufacturer’s instructions. Loss of cell plasma membrane integrity was assessed using a cell-impermeant molecule that becomes fluorescent upon binding DNA [82] in parallel with apoptosis detection per manufacturer’s instructions (RealTimeGlo^TM Annexin V Apoptosis and Necrosis Assay-Promega). Two additional assays of apoptotic cell death were also used. Caspase activation in response to treatment of MCC cells by discorhabdins or bortezomib (as a positive control) was measured using the CaspaseGlo® 3/7 Assay (Promega, Madison, WI, USA) according to the manufacturer’s instructions at multiple time points. Inhibition of apoptotic cell death was investigated using pre-treatment of cells with for 1 h with the pan-caspase inhibitor Z-VAD-FMK (Enzo Life Sciences, Farmingdale, NY, USA) followed by treatment with discorhabdins or bortezomib and estimation of cell viability as outlined above.
(§2) In order to compare responses among all of the discorhabdins and cell lines (98 combinations), dose–response curves were generated using identical discorhabdin dilution series. GraphPad Prism 8 (San Diego, CA, USA) software was utilized to graph dose–response data and to calculate IC50 values and area under the dose–response curves (AUC) along with 95% confidence interval estimates using four-parameter logistic nonlinear regression analysis. For further analysis and comparisons, AUC for each cell line/discorhabdin pair was visualized in a heatmap generated in R version 1.3.1073 (R Core Team (2013). R: A language and environment for statistical computing. R Foundation for Statistical Computing, Vienna, Austria, http://www.R-project.org/ (accessed on 12 January 2023).
Figure S39: Activity of discorhabdins against M CC cell lines.
The indicated discorh abd ins were ass essed for th eir ability to affect surviv al of control (H aCaT) and Merkel cell carcino ma cell lines (VN-MCC: MCC13, MCC26, UISO and VP -MCC: MKL-1, MKL-2, Wag a). Cells were plat ed at 2500 cells/well and compounds the next day. Cell survival was estimated by CellTiterGlo (normalized to untreated (DMSO) cells on the same plate). Structures w ere o btained from the supplier and/or the PubChem database or as described in the text. Number in bold in ( ) refers to structures in Figure 1 in the text. Curves were plotted and IC50 values and 95% confidence interval calculated by GraphPad software. […]

MCC cell lines = assay: Cell survival by CellTiterGlo, MCC cell lines together; type: cell-based; details: average over MCC cell lines
Method: as §1, §2

[2] = tested on: VP-MCC cell lines (MKL-1, MKL-2, and Waga); assay: Selectivity VP-MCC versus control cells (average AUC); type: cell-based
From the text: as §2
Figure S41: Discorhabdi nselectivity
Discorhabdin selectivity for VP -MCC and VN- MCCcells was estimated by comparison of activity (average AUC) for each dis corhabdin against VP -MCC (panel A) or VN- MCC (panel B) cell lines compared to control cells . Discorhabdins were sort ed by selectivity from most to least selective. - fold dif fer ence = (av e VN -MCC or VP -MCC AUC/ control AUC). Error bars […]
(1 picture or pasted object on this page, not shown here)

caspase-3 = tested on: caspase-3; set-up: method as in PMID 9917313; details: cited from earlier work
caspase-3/7 [3] = assay: Caspase-3/7 activation (CaspaseGlo 3/7) in UISO cells; type: cell-based; details: 8 or 24 h; normalized to DMSO control
Method: (§3) (a) Caspase activation. Cells were treated for 8 or 24 h with indicated discorhabdins or bortezomib. Caspase-3/7 activity was determined (Promega CaspaseGLO-3/7) and normalized to untreated (DMSO) control cells. Error bars represent sd (n = 4). (b). Apoptosis/necrosis. Cells were treated for up to 24 h with the indicated discorhabdins and assessed for Annexin binding and cell permeability using the Promega RealTime-Glo™ Annexin V Apoptosis and Necrosis Assay kit. Luminescence indicates Annexin binding, fluorescence indicates membrane permeability.
as §1, with “Inhibition of apoptotic cell death was investigated using pre-treatment of cells with for 1 h with the pan-caspase inhibitor Z-VAD-FMK (Enzo Life Sciences, Farmingdale, NY, USA) followed by treatment with discorhabdins or bortezomib and estimation of cell viability as outlined above.” left out

caspase-3/7 [4] = assay: Caspase-3/7 activation (CaspaseGlo 3/7) in MKL-1 cells; type: cell-based; details: 8 or 24 h; normalized to DMSO control
Method: as §3
as §1, with “Inhibition of apoptotic cell death was investigated using pre-treatment of cells with for 1 h with the pan-caspase inhibitor Z-VAD-FMK (Enzo Life Sciences, Farmingdale, NY, USA) followed by treatment with discorhabdins or bortezomib and estimation of cell viability as outlined above.” left out

MCC cells = assay: Cell death after pretreatment with pan-caspase inhibitor Z-VAD-FMK; type: cell-based; details: Z-VAD-FMK 40 µM, 1 h pretreatment; discorhabdins 10 µM, bortezomib 1 µM
Method: as §1, with “Inhibition of apoptotic cell death was investigated using pre-treatment of cells with for 1 h with the pan-caspase inhibitor Z-VAD-FMK (Enzo Life Sciences, Farmingdale, NY, USA) followed by treatment with discorhabdins or bortezomib and estimation of cell viability as outlined above.” left out

[5] = CellTiterGlo, normalized to DMSO
[6] = area under the dose-response curve

## Cn1cc2c3c1C(=O)C1=C(C3=NCC2)C2(C=C(Br)C(=O)C(Br)=C2)CCN1 [Compound 17, discorhabdin P]
HaCaT; Homo sapiens, HaCaT, control skin cell line, CellTiterGlo, normalized to DMSO, read-out: IC50 (nM) HaCaT
  IC50: 1260 nM
HaCaT; area under the dose-response curve, control cells
  AUC (arbitrary units) HaCaT: 150.9 arbitrary units
MCC13; [5]
  IC50: 499 nM
MCC13; [6]
  AUC (arbitrary units) MCC13: 64.76 arbitrary units
MCC26; [5]
  IC50: 1210 nM
MCC26; [6]
  AUC (arbitrary units) MCC26: 140.1 arbitrary units
UISO; [5]
  IC50: 292 nM
UISO; [6]
  AUC (arbitrary units) UISO: 50.65 arbitrary units
MKL-1; MKL-1, CellTiterGlo, normalized to DMSO, read-out: IC50 (nM) MKL-1
  IC50: 68 nM
MKL-1; [6]
  AUC (arbitrary units) MKL-1: 7.146 arbitrary units
MKL-2; [5]
  IC50: 87 nM
MKL-2; [6]
  AUC (arbitrary units) MKL-2: 17.05 arbitrary units
Waga; [5]
  IC50: 106 nM
Waga; [6]
  AUC (arbitrary units) WaGa: 14.11 arbitrary units
[1]
  activity on cell viability, in words: more potent than discorhabdin C in all seven cell lines
MCC cell lines
  averaged potency (IC50) across all MCC cell lines tested: sub-micromolar
[2]
  increased activity against VP-MCC compared to the control: > 10 fold
caspase-3
  caspase-3 inhibition: reported to inhibit caspase-3

## CC(C)C[C@H](NC(=O)[C@H](Cc1ccccc1)NC(=O)c1cnccn1)B(O)O [bortezomib, reference compound]
caspase-3/7 [3]
  caspase-3/7 activation, UISO: robustly activates caspase
caspase-3/7 [4]
  caspase-3/7 activation, MKL-1: robustly activates caspase
MCC cells
  effect of Z-VAD-FMK pretreatment on induced MCC cell death: reduced bortezomib-induced
